The values below come from PMC10349193 (CPT: Pharmacometrics & Systems Pharmacology, 2023).

Molecules are shown by their SMILES. Where two headings read alike, the source gives them in different places.

On the set-up of data set [1]: method as in SimCYP library version 19. The following applies: ref SimCYP library version 19; cited from earlier work.
The conditions of data set [2]: model input; ref SimCYP library version 19; cited from earlier work.
The conditions of data set [3]: model input; ref SimCYP library version 19; cited from earlier work. This is another data set of the same source.
Another data set has as its system Caco-2. The following applies: ref SimCYP library version 19, cited from earlier work.
A further data set has as its system CYP2D6. The following applies: ref SimCYP library version 19, cited from earlier work.
In the next data set the test system is proximal tubular cells. The following applies: Mech KiM; ref SimCYP library version 19; cited from earlier work.
Another data set relates to SLC22A2. The following applies: basal, ref SimCYP library version 19, cited from earlier work.
Another data set has as its system SLC22A8. The following applies: basal, ref SimCYP library version 19, cited from earlier work.
The test system of another data set is ABCC4. The following applies: apical, ref SimCYP library version 19, cited from earlier work.
The next data set relates to SLC47As. The following applies: apical, ref SimCYP library version 19, cited from earlier work.
The conditions of data set [4]: ref SimCYP library version 19, cited from earlier work.
For another data set, the system named is CYP2C19. The following applies: ref SimCYP library version 19, cited from earlier work.
The subject of the next data set is CYP1A2. Also noted: method as in SimCYP library version 19. The following applies: ref SimCYP library version 19, cited from earlier work.
The subject of data set [5] is CYP3A4. Also noted: method as in SimCYP library version 19. The following applies: ref SimCYP library version 19, cited from earlier work.
For data set [6] the following is noted: model input; ref SimCYP library version 19; cited from earlier work. This is another data set of the same source.
Data set [7] deals with CYP3A4. The following applies: ref SimCYP library version 19; cited from earlier work.
For another data set, the system named is MDCK II. The following applies: fluvoxamine file with reference compounds; ref SimCYP library version 19; cited from earlier work.
Data set [8] can be described thus: Apparent permeability in Caco-2 monolayers. Type of data set: in vitro ADME. The following applies: human, Caco‐2, 10 μM; for Papp A→B at 2 h, 10 μM: read-out: P app,AP→BL, without inhibitor; for Papp B→A at 2 h, 10 μM: read-out: P app,BL→AP, without inhibitor; for efflux ratio at 2 h, 10 μM: read-out: Efflux ratio P app,BL→AP/AP→BL, without inhibitor.
Protocol: All experiments were conducted in triplicate and analyzed by high performance liquid chromatography–tandem mass spectrometry (HPLC‐MS/MS). The apparent permeability coefficient (P app) was calculated based on the following equation: (1) Papp=dQ/dt×1/A×C0
where P app was cm/s × 10^−6, dQ/dt (pmol/second) was the rate at which the compound appears in the receiver side, C 0 (nM) was the initial concentration of the compound in the donor side, and A (cm^2) represents the surface area of the cell monolayer.
For data set [9], the target named is T1, P-gp (Homo sapiens, UniProt P08183).
T1 construct: endogenous in cells; host or cells: Caco-2
The data set can be described thus: P-gp substrate assessment in Caco-2 monolayers with verapamil. Type of data set: in vitro ADME. The following applies: Caco-2, with verapamil (concentration not stated), read-out: Efflux ratio P app,BL→AP/AP→BL, with inhibitor. In general terms: Passage across Caco-2 layers is used to estimate intestinal permeability.

Data set [10] relates to T2, P-gp.
T2 construct: endogenous in cells; host or cells: Caco-2
Described as above. In kind it is in vitro ADME. The following applies: human, Caco-2, with verapamil (concentration not stated); for Papp A→B at 2 h, 10 μM: read-out: P app,AP→BL, with inhibitor; for Papp B→A at 2 h, 10 μM: read-out: P app,BL→AP, with inhibitor.

T1 sequence (P08183 whole entry): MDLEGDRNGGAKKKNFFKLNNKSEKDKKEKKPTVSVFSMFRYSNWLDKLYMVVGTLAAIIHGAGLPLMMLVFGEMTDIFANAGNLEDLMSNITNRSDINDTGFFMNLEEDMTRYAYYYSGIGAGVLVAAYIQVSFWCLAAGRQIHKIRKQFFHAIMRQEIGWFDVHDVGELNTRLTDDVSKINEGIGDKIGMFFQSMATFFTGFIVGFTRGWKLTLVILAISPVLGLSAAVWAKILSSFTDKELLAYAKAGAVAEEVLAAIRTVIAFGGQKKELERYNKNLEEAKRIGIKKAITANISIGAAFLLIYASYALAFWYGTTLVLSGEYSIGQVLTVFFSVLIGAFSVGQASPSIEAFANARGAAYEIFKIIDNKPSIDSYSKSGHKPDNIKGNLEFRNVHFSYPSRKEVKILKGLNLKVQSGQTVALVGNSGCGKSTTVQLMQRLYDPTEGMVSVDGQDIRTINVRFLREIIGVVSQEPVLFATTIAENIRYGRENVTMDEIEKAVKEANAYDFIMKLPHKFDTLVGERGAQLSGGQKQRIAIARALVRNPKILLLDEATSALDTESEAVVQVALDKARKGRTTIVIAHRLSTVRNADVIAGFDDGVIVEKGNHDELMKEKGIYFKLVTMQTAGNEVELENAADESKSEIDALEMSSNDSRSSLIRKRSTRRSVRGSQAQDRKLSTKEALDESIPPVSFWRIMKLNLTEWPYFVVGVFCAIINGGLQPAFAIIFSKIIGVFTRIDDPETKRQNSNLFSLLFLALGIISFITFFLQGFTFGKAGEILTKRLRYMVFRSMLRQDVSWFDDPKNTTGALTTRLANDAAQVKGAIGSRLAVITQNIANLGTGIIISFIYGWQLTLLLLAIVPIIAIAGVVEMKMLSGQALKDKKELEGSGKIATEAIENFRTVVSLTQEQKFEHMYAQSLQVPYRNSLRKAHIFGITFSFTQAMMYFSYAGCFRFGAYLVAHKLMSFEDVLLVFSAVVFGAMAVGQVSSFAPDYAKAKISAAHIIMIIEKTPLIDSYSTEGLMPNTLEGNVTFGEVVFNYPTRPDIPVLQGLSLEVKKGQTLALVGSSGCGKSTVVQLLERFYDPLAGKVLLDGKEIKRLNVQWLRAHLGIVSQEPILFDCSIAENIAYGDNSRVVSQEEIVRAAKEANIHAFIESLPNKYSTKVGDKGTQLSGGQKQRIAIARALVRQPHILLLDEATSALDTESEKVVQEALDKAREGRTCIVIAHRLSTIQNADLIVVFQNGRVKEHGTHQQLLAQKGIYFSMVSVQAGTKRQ

In general, Ki refers to the dissociation constant of the complex between target and ligand, obtained from inhibition or displacement. Usually Km stands for the substrate concentration at which the rate is half of its maximum. In the case of `CN/C(=N/CCSCc1nc[nH]c1C)NC#N` [Cimetidine], in [1], the CLR is recorded as 31.6 L/h. Moreover, in [2], the “Fraction unbound in plasma” value is 0.8. Also, in data set [3], the Lag time was 0.15/28 h, the fa is given as 0.92/30, the fuGut is given as 1 and the ka was 0.7/18 1/h. In the data set on Caco-2 (Caco-2 pH 6.5: pH 7.4, references of fluconazole file, unit not given), the “Reference compound Papp” value is listed as 3.06. Moreover, the Ki in the data set on CYP2D6 (read-out: CYP2D6 Ki, competitive inhibition) was 3500 nM. The “fumic (CYP2D6 inhibition)” value in the data set with CYP2D6 was 1. In the data set with proximal tubular cells, the “CLPD,apical” value is 2.61E-05 mL/min/million proximal tubular cells, the “CLPD,basal” value is 2.61E-05 mL/min/million proximal tubular cells, the fuKidney cell is recorded as 1 and the fuUrine is listed as 1. In addition, the “SLC22A2 Jmax” value with SLC22A2 was 2170. In addition, the Michaelis constant (Km) in the data set with SLC22A2 (read-out: SLC22A2 Km) is 72.6 µM. In the data set on SLC22A8, the “SLC22A8 Jmax” value is 1232. Also, the Km with SLC22A8 (read-out: SLC22A8 Km) is 162 µM. In addition, in the data set with ABCC4, the “ABCC4 Jmax” value is listed as 216. For the same compound, in the data set with ABCC4 (read-out: ABCC4 Km), the Michaelis constant (Km) is 18.2 µM. The “SLC47As Jmax” value in the data set on SLC47As was 135.5. The Km in the data set with SLC47As (read-out: SLC47As Km) was 7.7 µM.

By Vss is commonly meant the apparent volume that relates the amount in the body to the concentration in plasma or blood. Consider `OC(Cn1cncn1)(Cn1cncn1)c1ccc(F)cc1F` [Fluconazole], for which the CLR in data set [1] is on record as 0.86 L/h. Besides, in the data set on Caco-2 (pH 6.5: pH 7.4, Passive&Active, fluconazole file), the “Caco-2 Papp” value is recorded as 29.8 10^-6 cm/s. The volume of distribution (Vss) in data set [4] (minimal PBPK model) was 0.76 L/kg. Also, the “Volume [Vsac]” value in [4] (single adjusting compartment) is 1e-05 L/kg. In addition, the Ki in the data set with CYP2C19 (read-out: CYP2C19 Ki, competitive inhibition) is 2000 nM. Also, in the data set on CYP2C19, the “fumic (CYP2C19 inhibition)” value is 1.

Usually Log P stands for a log measure of how a compound divides between an organic and an aqueous phase. As for `CCC(C)n1ncn(-c2ccc(N3CCN(c4ccc(OCC5COC(Cn6cncn6)(c6ccc(Cl)cc6Cl)O5)cc4)CC3)cc2)c1=O` (stereo not shown) [Itraconazole], in the data set with CYP1A2 (recombinant enzyme kinetics), the “CYP1A2 CLint” value was 1/1 μL/min/pmol. Besides, the “fumic (CYP1A2 metabolism)” value in the data set with CYP1A2 was 1/1. In addition, the “CYP3A4 Vmax” value in the data set on CYP3A4 [5] (recombinant enzyme kinetics) is given as 0.065 pmol/min/pmol of isoform. The “fumic (CYP3A4 metabolism)” value in the data set on CYP3A4 [5] is recorded as 1. In addition, the “Fraction unbound in plasma” value in data set [2] was 0.016. Besides, the “Log P” value in data set [6] is 4.47. Further, in [3], the Lag time is recorded as 0/30 h, the QGut is 18.32/12, the fa is on record as 0.59/30 and the fuGut was 0.016. Further, the ka in data set [3] was 0.6/30 1/h. Besides, in data set [4] (single adjusting compartment), the “Volume [Vsac]” value was 1e-05 L/kg and the kin is 0 h⁻¹. In the data set on CYP3A4 [7], the “fumic (CYP3A4 inhibition)” value was 1.

In the case of `COCCc1ccc(OCC(O)CNC(C)C)cc1` (stereo not shown) [Metoprolol], the “Caco-2 Papp” value with Caco-2 (pH 7.4: pH 7.4, Passive&Active, erythromycin file with reference compounds) is 145 10^-6 cm/s. For the same compound, the “MDCK II Papp” value in the data set with MDCK II is recorded as 29.6 10^-6 cm/s.

Consider `CC(C)(C)NCC(O)COc1cccc2c1CC(O)C(O)C2` (stereo not shown) [Nadolol], for which, in data set [8], the Papp A→B at 2 h, 10 μM was determined as 0.721 ×10⁻⁶ cm/s; the Papp B→A at 2 h, 10 μM was found to be 0.634 ×10⁻⁶ cm/s; the efflux ratio at 2 h, 10 μM stood at 0.88. On P-gp [9], the efflux ratio at 2 h, 10 μM was 0.554. Also, in the data set on P-gp [10], the Papp A→B at 2 h, 10 μM stood at 0.657 ×10⁻⁶ cm/s and the Papp B→A at 2 h, 10 μM amounted to 0.364 ×10⁻⁶ cm/s.

`CC(=O)O[C@H]1C(=O)[C@@]2(C)[C@H]([C@H](OC(=O)c3ccccc3)[C@]3(O)C[C@H](OC(=O)[C@H](O)[C@@H](NC(=O)c4ccccc4)c4ccccc4)C(C)=C1C3(C)C)[C@]1(OC(C)=O)CO[C@@H]1C[C@@H]2O` [Taxol]: in data set [8], the Papp A→B at 2 h, 10 μM is 0.0798 ×10⁻⁶ cm/s; the Papp B→A at 2 h, 10 μM turned out to be 0.56 ×10⁻⁶ cm/s; the efflux ratio at 2 h, 10 μM worked out at 7.02. The efflux ratio at 2 h, 10 μM on P-gp [9] turned out to be 1.09. Also, in the data set with P-gp [10], the Papp A→B at 2 h, 10 μM was 1.17 ×10⁻⁶ cm/s and the Papp B→A at 2 h, 10 μM was 1.28 ×10⁻⁶ cm/s.
